Data reported in patent US8383581B2, “Short-chain peptides as parathyroid hormone (PTH) receptor agonist” (Cadila Healthcare Limited, priority 2009, dated 2013).
Where a SMILES comes first, the peptide text is derived from it. [ ]: non-standard residue; d: D form. ξ: configuration not given here. ξBip(2'-Et-4'-OMe) = CCc1cc(OC)ccc1-c1ccc(CC(N)C(=O)O)cc1; αMePhe(2,6-F2) = C[C@](N)(Cc1c(F)cccc1F)C(=O)O; ξαMePhe(2,6-F2) = CC(N)(Cc1c(F)cccc1F)C(=O)O; ξαMe(hhPhe) = CC(N)(CCCc1ccccc1)C(=O)O; ξαMePhe(2-F) = CC(N)(Cc1ccccc1F)C(=O)O; ξαMeW = CC(N)(Cc1c[nH]c2ccccc12)C(=O)O; hhPhe = N[C@@H](CCCc1ccccc1)C(=O)O; hArg = N=C(N)NCCCC[C@H](N)C(=O)O; Cit = NC(=O)NCCC[C@H](N)C(=O)O; ξαMeNle = CCCCC(C)(N)C(=O)O; ξαMeV = CC(C)C(C)(N)C(=O)O; Nle = CCCC[C@H](N)C(=O)O; Orn = NCCC[C@H](N)C(=O)O; ξαMeP = CC1(C(=O)O)CCCN1; Ac5c = NC1(C(=O)O)CCCC1; Ac3c = NC1(C(=O)O)CC1; Aib = CC(C)(N)C(=O)O

Assays:
Format in all cases: in vitro ADME
[1] = Stability of peptides in human plasma; conditions: human, plasma; for metabolised at 24 h, 2 μM: pH 7.8
Method in brief: (§1)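 Peptides at 2 μM final incubated 0–24 h at 37 °C (50 mM triethanolamine-HCl, pH 7.8) in each matrix, matrix level set to degrade ~50% PTH(1-34) in 1 h; TFA-quenched, C18 HPLC at 206 nm with ESI-MS peak identification; percent degradation from peak areas at each time point.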

[2] = Stability of peptides in simulated gastric fluid (pH 1.5; HCl, NaCl and Pepsin); conditions: pH 1.5; for % degradation of peptides in 24 h when incubated with simulated gastric fluid: 2 μM
[3] = Stability of peptides in simulated intestinal fluid (pH 7.5); conditions: pH 7.5; for % degradation of peptides in 24 h when incubated with simulated intestinal fluid: 2 μM
Method in brief: as §1

[4] = Stability of peptides in human liver microsomes; conditions: human, microsomes; for % degradation of peptides in 24 h when incubated with liver microsomes: 2 μM, pH 7.8
Method in brief: as §1

Compound | half-life [1] | metabolised at 24 h, 2 μM [1] | % degradation of peptides in 24 h when incubated with simulated gastric fluid [2] | half-life ([2]; simulated gi fluid) | half-life ([3]; simulated gi fluid) | % degradation of peptides in 24 h when incubated with simulated intestinal fluid [3] | half-life [4] | % degradation of peptides in 24 h when incubated with liver microsomes [4] | half-life (t1/2) in liver microsomes [4] | half-life (t1/2) in simulated gastric fluid ([2]; simulated gi fluid) | half-life (t1/2) in simulated intestinal fluid ([3]; simulated gi fluid) | half-life (t1/2) in human plasma [1]
CCCC[C@H](NC(=O)[C@H](CC(C)C)NC(=O)[C@H](CCC(N)=O)NC(=O)[C@@H](NC(=O)[C@H](CCC(=O)O)NC(=O)C(C)(C)NC(=O)[C@@H](NC(=O)C(C)(C)N)C(C)C)[C@@H](C)CC)C(=O)N[C@@H](Cc1c[nH]cn1)C(=O)N[C@@H](CCC(N)=O)C(=O)N[C@@H](CCCCNC(=N)N)C(=O)N[C@@H](C)C(=O)N[C@@H](CCCNC(=N)N)C(=O)NC(Cc1ccc(-c2ccc(OC)cc2CC)cc1)C(=O)N[C@@H](CCCc1ccccc1)C(N)=O (stereo partly drawn) [Seq. ID. 730] (H-[Aib]V[Aib]EIQL[Nle]HQ[hArg]AR[ξBip(2'-Et-4'-OMe)][hhPhe]-NH2) | > 22 h | 5% | 55% | 4 h | > 24 h | 00% | 2 h | 84% | – | – | – | –
CCCC[C@H](NC(=O)C(C)(Cc1c(F)cccc1F)NC(=O)[C@H](CCC(N)=O)NC(=O)[C@@H](NC(=O)[C@H](CCC(=O)O)NC(=O)C(C)(C)NC(=O)[C@@H](NC(=O)C1(N)CCCC1)C(C)C)[C@@H](C)CC)C(=O)N[C@@H](Cc1c[nH]cn1)C(=O)N[C@@H](CCC(N)=O)C(=O)N[C@@H](CCCN)C(=O)N[C@@H](C)C(=O)N[C@@H](CCCNC(N)=O)C(=O)NC(Cc1ccc(-c2ccc(OC)cc2CC)cc1)C(=O)N[C@@H](CCCc1ccccc1)C(N)=O (stereo partly drawn) [Seq. ID. 829] (H-[Ac5c]V[Aib]EIQ[ξαMePhe(2,6-F2)][Nle]HQ[Orn]A[Cit][ξBip(2'-Et-4'-OMe)][hhPhe]-NH2) | > 23 h | 1% | 43% | 4 h | > 22 h | 05% | 2 h | 84% | – | – | – | –
CCCC[C@H](NC(=O)C(C)(Cc1ccccc1F)NC(=O)[C@H](CCC(N)=O)NC(=O)[C@@H](NC(=O)[C@H](CCC(=O)O)NC(=O)C1(NC(=O)[C@@H](NC(=O)C(C)(C)N)C(C)C)CCCC1)[C@@H](C)CC)C(=O)N[C@@H](Cc1c[nH]cn1)C(=O)N[C@@H](CCC(N)=O)C(=O)N[C@@H](CCCCNC(=N)N)C(=O)N1CCCC1(C)C(=O)N[C@@H](CCCCN)C(=O)NC(C)(Cc1ccccc1F)C(N)=O (stereo partly drawn) [Seq. ID. 62] (H-[Aib]V[Ac5c]EIQ[ξαMePhe(2-F)][Nle]HQ[hArg][ξαMeP]K[ξαMePhe(2-F)]-NH2) | > 24 h | 0% | 00% | > 24 h | > 24 h | 00% | – | 33% | (5) h | – | – | –
CCCC[C@H](NC(=O)C(C)(Cc1ccccc1F)NC(=O)[C@H](CCC(N)=O)NC(=O)[C@@H](NC(=O)[C@H](CCC(=O)O)NC(=O)C1(NC(=O)[C@@H](NC(=O)C2(N)CCCC2)C(C)C)CCCC1)[C@@H](C)CC)C(=O)N[C@@H](Cc1c[nH]cn1)C(=O)N[C@@H](CCC(N)=O)C(=O)N[C@@H](CCCCNC(=N)N)C(=O)N1CCCC1(C)C(=O)N[C@@H](CCCCN)C(=O)NC(C)(Cc1c(F)cccc1F)C(N)=O (stereo partly drawn) [Seq. ID. 100] (H-[Ac5c]V[Ac5c]EIQ[ξαMePhe(2-F)][Nle]HQ[hArg][ξαMeP]K[ξαMePhe(2,6-F2)]-NH2) | > 24 h | 0% | 49% | 4 h | > 24 h | 00% | 2 h | 82% | – | – | – | –
CCCC[C@H](NC(=O)[C@](C)(Cc1c(F)cccc1F)NC(=O)[C@H](CCC(N)=O)NC(=O)[C@@H](NC(=O)[C@H](CCC(=O)O)NC(=O)C(C)(C)NC(=O)[C@@H](NC(=O)C(C)(C)N)C(C)C)[C@@H](C)CC)C(=O)N[C@@H](Cc1c[nH]cn1)C(=O)N[C@@H](CCC(N)=O)C(=O)NC(C)(C)C(=O)NC(C)(C)C(=O)N[C@@H](CCCNC(N)=O)C(=O)N[C@@](C)(Cc1c(F)cccc1F)C(N)=O [Seq. ID. 550] (H-[Aib]V[Aib]EIQ[αMePhe(2,6-F2)][Nle]HQ[Aib][Aib][Cit][αMePhe(2,6-F2)]-NH2) | 8 h | 80% | 13% | – | – | 50% | 1 h | 82% | – | (8) h | (6) h | –
CCCC[C@H](NC(=O)C(C)(Cc1c(F)cccc1F)NC(=O)[C@H](CCC(N)=O)NC(=O)[C@@H](NC(=O)[C@H](CCC(=O)O)NC(=O)C(C)(C)NC(=O)[C@@H](NC(=O)C(C)(C)N)C(C)C)[C@@H](C)CC)C(=O)N[C@@H](Cc1c[nH]cn1)C(=O)N[C@@H](CCC(N)=O)C(=O)NC(C)(Cc1c(F)cccc1F)C(=O)N[C@@H](C)C(=O)NC(C)(Cc1c(F)cccc1F)C(=O)NC(Cc1ccc(-c2ccc(OC)cc2CC)cc1)C(=O)N[C@@H](CCCc1ccccc1)C(N)=O (stereo partly drawn) [Seq. ID. 880] (H-[Aib]V[Aib]EIQ[ξαMePhe(2,6-F2)][Nle]HQ[ξαMePhe(2,6-F2)]A[ξαMePhe(2,6-F2)][ξBip(2'-Et-4'-OMe)][hhPhe]-NH2) | > 24 h | 0% | 00% | > 24 h | > 24 h | 00% | – | 31% | (5) h | – | – | –

The remaining lines, values ahead:

half-life [1] | metabolised at 24 h, 2 μM [1] | % degradation of peptides in 24 h when incubated with simulated gastric fluid [2] | half-life ([2]; simulated gi fluid) | half-life ([3]; simulated gi fluid) | % degradation of peptides in 24 h when incubated with simulated intestinal fluid [3] | half-life [4] | % degradation of peptides in 24 h when incubated with liver microsomes [4] | half-life (t1/2) in liver microsomes [4] | half-life (t1/2) in simulated gastric fluid ([2]; simulated gi fluid) | half-life (t1/2) in simulated intestinal fluid ([3]; simulated gi fluid) | half-life (t1/2) in human plasma [1] | Compound
– | 75% | 100% | 0.5 h | 0.5 h | 100% | 0.5 h | 100% | – | – | – | (9) h | CCCCC(C)(NC(=O)[C@H](CC(C)C)NC(=O)[C@H](CCC(N)=O)NC(=O)[C@@H](NC(=O)[C@H](CCC(=O)O)NC(=O)C(C)(C)NC(=O)[C@@H](NC(=O)C1(N)CC1)C(C)C)[C@@H](C)CC)C(=O)N[C@@H](Cc1c[nH]cn1)C(=O)N[C@@H](CCC(N)=O)C(=O)N[C@@H](CCCCNC(=N)N)C(=O)N[C@@H](C)C(=O)N[C@@H](CCCCNC(=N)N)C(=O)NC(C)(Cc1c[nH]c2ccccc12)C(=O)N[C@@H](CCCc1ccccc1)C(N)=O (stereo partly drawn) [Seq. ID. 945] (H-[Ac3c]V[Aib]EIQL[ξαMeNle]HQ[hArg]A[hArg][ξαMeW][hhPhe]-NH2)
> 24 h | 0% | 00% | > 24 h | > 24 h | 00% | – | 33% | (5) h | – | – | – | CCCC[C@H](NC(=O)[C@H](CC(C)C)NC(=O)[C@H](CCC(N)=O)NC(=O)[C@@H](NC(=O)[C@H](CCC(=O)O)NC(=O)C(C)(C)NC(=O)[C@@H](NC(=O)C1(NC(=O)C(C)(N)C(C)C)CCCC1)C(C)C)[C@@H](C)CC)C(=O)N[C@@H](Cc1c[nH]cn1)C(=O)N[C@@H](CCC(N)=O)C(=O)N[C@@H](CCCCNC(=N)N)C(=O)N[C@@H](C)C(=O)N[C@@H](CCCCN)C(=O)NC(Cc1ccc(-c2ccc(OC)cc2CC)cc1)C(=O)NC(C)(CCCc1ccccc1)C(N)=O (stereo partly drawn) [Seq. ID. 895] (H-[ξαMeV][Ac5c]V[Aib]EIQL[Nle]HQ[hArg]AK[ξBip(2'-Et-4'-OMe)][ξαMe(hhPhe)]-NH2)
> 20 h | 10% | 08% | > 22 h | > 22 h | 09% | – | 33% | (5) h | – | – | – | CCCCC(C)(NC(=O)[C@H](CC(C)C)NC(=O)[C@H](CCC(N)=O)NC(=O)[C@@H](NC(=O)[C@H](CCC(=O)O)NC(=O)C(C)(C)NC(=O)[C@@H](NC(=O)C1(NC(=O)C(C)(N)C(C)C)CCCC1)C(C)C)[C@@H](C)CC)C(=O)N[C@@H](Cc1c[nH]cn1)C(=O)N[C@@H](CCC(N)=O)C(=O)N[C@@H](CCCCNC(=N)N)C(=O)N[C@@H](C)C(=O)N[C@@H](CCCCNC(=N)N)C(=O)NC(C)(Cc1ccccc1F)C(=O)NC(C)(CCCc1ccccc1)C(N)=O (stereo partly drawn) [Seq. ID. 939] (H-[ξαMeV][Ac5c]V[Aib]EIQL[ξαMeNle]HQ[hArg]A[hArg][ξαMePhe(2-F)][ξαMe(hhPhe)]-NH2)
